Reference: paper PMC11651915, “Small molecule protein assembly modulators with pan-cancer therapeutic efficacy” (Open Biology, 2024)
pIC50: −log10 of the molar value.

Tests used:
[1] = system: MDA-MB-435; assay: cells; type: cell-based; details: Homo sapiens, NCI-60, 48 h
[2] = system: HT-29; assay: In-house cancer cell viability screen (AlamarBlue); type: cell-based; details: Homo sapiens, 72 h
[3] = system: SK-MEL-2; assay: cells; details: Homo sapiens, SK-MEL-2, 48 h
[4] = system: A498; assay: cells; details: Homo sapiens, A498, 48 h
[5] = system: HT-29 colorectal cancer xenograft; assay: HT-29 xenograft study; type: in vivo, mouse; details: 17 days, PAV-951 3 mg kg^−1 IV, Irinotecan 60 mg kg^−1 IP
Procedure: In the second animal efficacy study, human HT-29 colorectal adenocarcinoma cells were grafted subcutaneously onto mice. After tumour establishment, the animals received treatment with vehicle, 3 mg kg^−1 PAV-951 or 60 mg kg^−1 of a positive control drug Irinotecan. […]. Survival was not assessed as part of the study.
HT-29 cells growing in HBSS medium were suspended in Matrigel. 0.1 ml of the cell suspension containing 5 × 10^6 cells were injected subcutaneously into the left flank region of male, 6–8 week old SCID mice. After tumour establishment, animals were divided randomly into groups of six and treated daily by IV with vehicle daily for 17 days, 3 mg kg^−1 PAV-951 three times per week for 17 days, or treated by IP with 60 mg kg^−1 Irinotecan every 4 days for 14 days. Tumour volume was calculated using the formula: (L × W2)/2 where L is the largest diameter and W is the smallest diameter of the tumour. Statistical analysis was performed using GraphPad Prism (Ver. 5.03). Statistical analysis of tumour growth inhibition between the Control and Treated groups was performed by using ne-way ANOVA followed by Dunnett’s test.

[6] = system: PANC-1; assay: In-house cancer cell viability screen (AlamarBlue); type: cell-based; details: Homo sapiens, 72 h
[7] = system: ACHN; assay: cells; details: Homo sapiens, 48 h
[8] = system: SW-620; assay: cells; type: cell-based; details: Homo sapiens, NCI-60, 48 h
[9] = system: MCF7; assay: Eurofins OncoPanel (CellTiter-Glo); type: cell-based; details: Homo sapiens, 72 h, 3 days
[10] = system: HT29; assay: cells; type: cell-based; details: Homo sapiens, HT-29, NCI-60, 48 h
[11] = system: SNB-19; assay: cells; details: Homo sapiens, SNB-19, 48 h
[12] = system: MeWo; assay: Eurofins OncoPanel (CellTiter-Glo); details: Homo sapiens, 72 h
[13] = system: HCC-2998; assay: cells; details: Homo sapiens, HCC 2998, 48 h
[14] = system: SJSA1-OSA; assay: Eurofins OncoPanel (CellTiter-Glo); type: cell-based; details: Homo sapiens, 72 h, 3 days
[15] = in vivo; details: female, Balb/c, mouse, ip
[16] = system: HOP-92; assay: cells; details: Homo sapiens, HOP-92, 48 h
[17] = system: LNCaP C-33; assay: In-house cancer cell viability screen (AlamarBlue); type: cell-based; details: Homo sapiens, LnCAP-C33, 72 h
[18] = system: NCI-H522; assay: cells; details: Homo sapiens, NCI-H522, 48 h

CC(C)CCNc1ncnc2cc(N3CCN(c4ccc5c(NCCC(C)C)ncnc5c4)CC3)ccc12 [PAV-951]
GI50 [1]: 273 nM | pIC50 [2]: 7.00 | GI50 [3]: 1650 nM | CC50 ([3]; read-out: LC50): 5910 nM | GI50 [4]: 1860 nM | CC50 ([4]; read-out: LC50): 5920 nM | tumour growth inhibition (TGI) [5]: 52% | pIC50 [6]: 6.61 | GI50 [7]: 586 nM | CC50 ([7]; read-out: LC50): 4280 nM | GI50 [8]: 194 nM | pIC50 [9]: 5.70 | GI50 [10]: 345 nM | GI50 [11]: 1170 nM | CC50 ([11]; read-out: LC50): 5180 nM | pIC50 [12]: 5.93 | GI50 [13]: 967 nM | CC50 ([13]; read-out: LC50): 5130 nM | pIC50 [14]: 6.14 | MTD [15]: 2.5 mg/kg | GI50 [16]: 1230 nM | CC50 ([16]; read-out: LC50): 6220 nM | pIC50 [17]: 6.27 | GI50 [18]: 1770 nM | CC50 ([18]; read-out: LC50): 6950 nM
